In ChEMBL document CHEMBL4002560, “Synthesis and biological evaluation of novel isoxazolines linked via piperazine to 2- benzoisothiazoles as potent apoptotic agents” (Eur J Med Chem, 2017) one finds Activity and IC50 data, which are given here for 9 compounds.

Active and inactive are the calls of the source. No cut-off for these calls is given here.

The test system of one assay is EAT. The experiment in a line: Cytotoxicity against mouse EAT cells assessed as decrease in cell viability at 50 uM by trypan blue dye exclusion assay. It is filed as functional, cell-based. Conditions: TDE = time-dependent effect.
In assay [1] the test system is MDA-MB-231. The experiment in a line: Cytotoxicity against human MDA-MB-231 cells assessed as decrease in cell viability at 2 to 200 uM after 16 hrs by MTT assay. It counts as functional, cell-based.
A short description of assay [2]: Cytotoxicity against mouse EAT cells assessed as cell death at 50 uM after 16 hrs by trypan blue dye exclusion assay relative to control. It is filed as functional.
Assay [3] concerns MDA-MB-231. In words: Cytotoxicity against human MDA-MB-231 cells assessed as decrease in cell viability after 16 hrs by MTT assay. It is filed as functional, cell-based. Conditions: MDA-MB-231, 16 h.
Assay [4] can be described thus: Induction of apoptosis in mouse EAT cells assessed as early apoptotic cells with membrane blebbing and condensed nuclei at 50 uM after 16 hrs by acridine orange/ethidium bromide staining-based fluorescence microscopic method relative to control. It counts as functional.

On to `COc1ccc(C2=NOC(CN3CCN(c4nsc5ccccc45)CC3)C2)cc1` (stereo unspecified), for which the Activity entry in the assay on EAT was “Tde”. Also, the result with MDA-MB-231 [1] was Active.
On the same counts, the results for `COc1ccc(C2=NOC(CN3CCN(c4nsc5ccccc45)CC3)C2)cc1OC` (stereo unspecified) are “Tde” and “Active”.
On the same counts, the results for `Fc1ccc(C2=NOC(CN3CCN(c4nsc5ccccc45)CC3)C2)cc1` (stereo unspecified) are “Tde” and “inactive”.
On to `c1ccc(C2=NOC(CN3CCN(c4nsc5ccccc45)CC3)C2)cc1` (stereo unspecified), for which the Activity entry in the assay with EAT was “Tde”; in assay [2], 50%. Besides, the result in the assay with MDA-MB-231 [1] was inactive.
In the case of `Clc1ccc(C2=NOC(CN3CCN(c4nsc5ccccc45)CC3)C2)cc1` (stereo unspecified), the Activity result is “Tde” in the assay with EAT and 61.3% in assay [4]. Besides, the half-inhibitory concentration (IC50) in the assay on MDA-MB-231 [3] worked out at 75 µM.
Take `COc1cc(C2=NOC(CN3CCN(c4nsc5ccccc45)CC3)C2)ccc1OCc1ccccc1` (stereo unspecified): the Activity entry in the assay with EAT was “Tde”; in assay [2], 53%; in assay [4], 67.3%. For the same compound, the IC50 in the assay with MDA-MB-231 [3] turned out to be 30 µM.
For the compound `COc1cc(C2=NOC(CN3CCN(c4nsc5ccccc45)CC3)C2)cc(OC)c1OC` (stereo unspecified), the Activity entry in the assay with EAT was “Tde”. Also, the outcome with MDA-MB-231 [1] was inactive.
As to `COc1ccc(C2=NOC(CN3CCN(c4nsc5ccccc45)CC3)C2)cc1OCc1ccccc1` (stereo unspecified), the values for the Activity entry (with EAT; in assay [2]; in assay [4]) were “Tde”, 44.6% and 50%, respectively. In addition, the IC50 in the assay with MDA-MB-231 [3] turned out to be 95 µM.
`c1ccc(COc2ccc(C3=NOC(CN4CCN(c5nsc6ccccc56)CC4)C3)cc2)cc1` (stereo unspecified): the Activity result with EAT was “Tde”; in assay [2] it was 45.6%; in assay [4], 59%. In the assay on MDA-MB-231 [1], the outcome was Active.
